Patent publication US9062124B2, “GIP-based mixed agonists for treatment of metabolic disorders and obesity” (priority 2008, dated 2015)
Where a SMILES comes first, the peptide text is derived from it. Bridges are numbered along the chain shown (N, C = ends).

Assays:
Type in all cases: cell-based
glucagon receptor = target: T1, glucagon receptor (Homo sapiens, UniProt P47871); assay: cAMP synthesis functional assay (firefly luciferase reporter in HEK293 cells), glucagon receptor; conditions: Table 1; relative to the native hormone of the indicated receptor
T1 construct: expressed in transfected cells; host or cells: HEK293

GIP receptor = target: T2, GIP receptor (Homo sapiens, UniProt P48546); assay: cAMP synthesis functional assay (firefly luciferase reporter in HEK293 cells), GIP receptor; conditions: Table 1; relative to the native hormone of the indicated receptor
T2 construct: expressed in transfected cells; host or cells: HEK293
T2 sequence (P48546 22-466): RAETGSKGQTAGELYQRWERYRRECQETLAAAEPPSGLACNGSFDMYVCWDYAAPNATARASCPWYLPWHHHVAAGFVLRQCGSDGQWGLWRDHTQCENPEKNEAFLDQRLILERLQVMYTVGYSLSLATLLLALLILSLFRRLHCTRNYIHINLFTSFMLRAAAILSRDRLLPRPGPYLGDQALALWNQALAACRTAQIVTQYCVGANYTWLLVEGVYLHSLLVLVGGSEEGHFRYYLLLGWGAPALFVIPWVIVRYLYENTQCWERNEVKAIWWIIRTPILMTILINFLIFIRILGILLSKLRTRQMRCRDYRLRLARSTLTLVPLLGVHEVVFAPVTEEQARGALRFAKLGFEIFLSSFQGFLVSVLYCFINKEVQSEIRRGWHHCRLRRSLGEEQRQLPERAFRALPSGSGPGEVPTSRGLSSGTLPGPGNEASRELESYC

GLP-1 receptor = target: T3, GLP-1 receptor (Homo sapiens, UniProt P43220); assay: cAMP synthesis functional assay (firefly luciferase reporter in HEK293 cells), GLP-1 receptor; conditions: Table 1; for GLP-1 Receptor relative activity: relative to the native hormone of the indicated receptor; for EC50: GLP-1 Receptor EC50, nM
T3 construct: expressed in transfected cells; host or cells: HEK293
T3 sequence (P43220 24-463, species assumed): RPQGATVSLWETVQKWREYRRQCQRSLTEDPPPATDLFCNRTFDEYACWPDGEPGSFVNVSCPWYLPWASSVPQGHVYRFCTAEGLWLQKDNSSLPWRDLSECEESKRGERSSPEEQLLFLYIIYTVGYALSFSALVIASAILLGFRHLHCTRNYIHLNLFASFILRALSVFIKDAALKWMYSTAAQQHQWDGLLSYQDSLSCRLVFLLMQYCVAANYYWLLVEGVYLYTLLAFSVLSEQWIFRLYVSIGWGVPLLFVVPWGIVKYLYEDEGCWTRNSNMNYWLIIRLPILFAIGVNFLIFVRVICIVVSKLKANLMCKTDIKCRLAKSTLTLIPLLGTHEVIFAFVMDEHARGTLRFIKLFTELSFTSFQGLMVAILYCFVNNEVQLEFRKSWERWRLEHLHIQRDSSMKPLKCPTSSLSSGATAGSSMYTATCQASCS

T1 sequence (P47871 26-477): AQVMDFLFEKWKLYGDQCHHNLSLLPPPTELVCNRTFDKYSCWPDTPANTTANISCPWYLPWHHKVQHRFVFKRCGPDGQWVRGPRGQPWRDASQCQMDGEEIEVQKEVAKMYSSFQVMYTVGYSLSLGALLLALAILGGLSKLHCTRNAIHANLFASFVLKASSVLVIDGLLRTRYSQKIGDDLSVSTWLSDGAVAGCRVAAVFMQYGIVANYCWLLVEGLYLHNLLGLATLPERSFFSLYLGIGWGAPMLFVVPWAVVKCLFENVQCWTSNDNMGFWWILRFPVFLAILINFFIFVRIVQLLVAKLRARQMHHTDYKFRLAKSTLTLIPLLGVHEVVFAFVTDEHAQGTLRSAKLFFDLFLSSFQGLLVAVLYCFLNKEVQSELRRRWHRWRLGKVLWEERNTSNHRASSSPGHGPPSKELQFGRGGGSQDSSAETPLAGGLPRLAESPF

| Structure (SMILES) | Glucagon Receptor relative activity (glucagon receptor) [%] | GIP Receptor relative activity (GIP receptor) [%] | GLP-1 Receptor relative activity (GLP-1 receptor) [%] | EC50 (GLP-1 receptor) [nM] |
| --- | --- | --- | --- | --- |
| CC[C@H](C)[C@@H]1NC(=O)[C@@H](NC(=O)[C@H](CC(=O)O)NC(=O)[C@H](CC(C)C)NC(=O)[C@H](Cc2ccc(O)cc2)NC(=O)[C@H](CCCCN)NC(=O)[C@H](CO)NC(=O)[C@H](Cc2ccc(O)cc2)NC(=O)[C@H](CC(=O)O)NC(=O)[C@H](CO)NC(=O)[C@@H](NC(=O)[C@H](Cc2ccccc2)NC(=O)[C@@H](NC(=O)CNC(=O)[C@H](CCC(N)=O)NC(=O)[C@H](CO)NC(=O)[C@@H](N)Cc2c[nH]cn2)[C@@H](C)O)[C@@H](C)O)CCC(=O)NCCCC[C@@H](C(=O)N[C@@H](CC(=O)O)C(=O)N[C@@H](Cc2ccccc2)C(=O)N[C@H](C(=O)N[C@@H](CC(N)=O)C(=O)N[C@@H](Cc2c[nH]c3ccccc23)C(=O)N[C@@H](CC(C)C)C(=O)N[C@@H](CC(C)C)C(=O)N[C@@H](C)C(=O)NCC(=O)NCC(=O)N2CCC[C@H]2C(=O)N[C@@H](CO)C(=O)N[C@@H](CO)C(=O)NCC(=O)N[C@@H](C)C(=O)N2CCC[C@H]2C(=O)N2CCC[C@H]2C(=O)N2CCC[C@H]2C(=O)N[C@@H](CO)C(N)=O)C(C)C)NC(=O)[C@H](CCC(N)=O)NC(=O)[C@H](Cc2c[nH]cn2)NC1=O [mt-115] (H-HSQGTFTSDYSKYLDEIHQKDFVNWLLAGGPSSGAPPPS-NH2; lactam 16-20; N-terminus assumed) | 11.36 | 1.31 | 20.00 |  |
| CC[C@H](C)[C@@H]1NC(=O)[C@@H](NC(=O)[C@H](CC(=O)O)NC(=O)[C@H](CC(C)C)NC(=O)[C@H](Cc2ccc(O)cc2)NC(=O)[C@H](CCCCN)NC(=O)[C@H](CO)NC(=O)[C@H](Cc2ccc(O)cc2)NC(=O)[C@H](CC(=O)O)NC(=O)[C@H](CO)NC(=O)[C@@H](NC(=O)[C@H](Cc2ccccc2)NC(=O)[C@@H](NC(=O)CNC(=O)[C@H](CCC(N)=O)NC(=O)[C@H](CO)NC(=O)[C@@H](N)Cc2ccc(O)cc2)[C@@H](C)O)[C@@H](C)O)CCC(=O)NCCCC[C@@H](C(=O)N[C@@H](CCC(=O)O)C(=O)N[C@@H](Cc2ccccc2)C(=O)N[C@H](C(=O)N[C@@H](CC(N)=O)C(=O)N[C@@H](Cc2c[nH]c3ccccc23)C(=O)N[C@@H](CC(C)C)C(=O)N[C@@H](CC(C)C)C(=O)N[C@@H](C)C(=O)N[C@@H](CCC(N)=O)C(N)=O)C(C)C)NC(=O)[C@H](CCC(N)=O)NC(=O)[C@H](Cc2c[nH]cn2)NC1=O [mt-118] (H-YSQGTFTSDYSKYLDEIHQKEFVNWLLAQ-NH2; lactam 16-20; N-terminus assumed) | 125.00 | 6.39 | 2.34 |  |
| CC[C@H](C)[C@H](NC(=O)[C@H](Cc1ccccc1)NC(=O)[C@H](CCC(=O)O)NC(=O)[C@@H]1CCCCNC(=O)CC[C@H](NC(=O)[C@H](CC(=O)O)NC(=O)[C@H](CC(C)C)NC(=O)[C@H](Cc2ccc(O)cc2)NC(=O)[C@H](CCCCN)NC(=O)[C@H](CO)NC(=O)[C@H](Cc2ccc(O)cc2)NC(=O)[C@H](CC(=O)O)NC(=O)[C@H](CO)NC(=O)[C@@H](NC(=O)[C@H](Cc2ccccc2)NC(=O)[C@@H](NC(=O)CNC(=O)[C@H](CCC(N)=O)NC(=O)[C@H](CO)NC(=O)[C@@H](N)Cc2ccc(O)cc2)[C@@H](C)O)[C@@H](C)O)C(=O)N[C@@H](CCC(N)=O)C(=O)N[C@@H](C)C(=O)N[C@@H](C)C(=O)N1)C(=O)N[C@@H](C)C(=O)N[C@@H](Cc1c[nH]c2ccccc12)C(=O)N[C@@H](CC(C)C)C(=O)N[C@@H](CCSC)C(=O)N[C@@H](CC(N)=O)C(=O)NCC(=O)NCC(=O)N1CCC[C@H]1C(=O)N[C@@H](CO)C(=O)N[C@@H](CO)C(=O)NCC(=O)N[C@@H](C)C(=O)N1CCC[C@H]1C(=O)N1CCC[C@H]1C(=O)N1CCC[C@H]1C(=O)N[C@@H](CO)C(N)=O [mt-120] (H-YSQGTFTSDYSKYLDEQAAKEFIAWLMNGGPSSGAPPPS-NH2; lactam 16-20; N-terminus assumed) | 259.46 | 1.81 | 13.45 |  |

Further lines, results first:

| Glucagon Receptor relative activity (glucagon receptor) [%] | GIP Receptor relative activity (GIP receptor) [%] | GLP-1 Receptor relative activity (GLP-1 receptor) [%] | EC50 (GLP-1 receptor) [nM] | Structure (SMILES) |
| --- | --- | --- | --- | --- |
| 23.26 | 9.62 | 1.49 |  | CC[C@H](C)[C@H](NC(=O)[C@H](CO)NC(=O)[C@H](Cc1ccc(O)cc1)NC(=O)[C@H](CC(=O)O)NC(=O)[C@H](CO)NC(=O)[C@@H](NC(=O)[C@H](Cc1ccccc1)NC(=O)[C@@H](NC(=O)CNC(=O)[C@H](CCC(N)=O)NC(=O)[C@H](CO)NC(=O)[C@@H](N)Cc1ccc(O)cc1)[C@@H](C)O)[C@@H](C)O)C(=O)N[C@@H](Cc1ccc(O)cc1)C(=O)N[C@@H](CC(C)C)C(=O)N[C@@H](CC(=O)O)C(=O)N[C@H]1CCC(=O)NCCCC[C@@H](C(=O)N[C@@H](CC(=O)O)C(=O)N[C@@H](Cc2ccccc2)C(=O)N[C@H](C(=O)N[C@@H](CC(N)=O)C(=O)N[C@@H](Cc2c[nH]c3ccccc23)C(=O)N[C@@H](CC(C)C)C(=O)N[C@@H](CC(C)C)C(=O)N[C@@H](C)C(=O)N[C@@H](CCC(N)=O)C(N)=O)C(C)C)NC(=O)[C@H](CCC(N)=O)NC(=O)[C@H](Cc2c[nH]cn2)NC(=O)[C@H]([C@@H](C)CC)NC1=O [mt-110] (H-YSQGTFTSDYSIYLDEIHQKDFVNWLLAQ-NH2; lactam 16-20; N-terminus assumed) |
| 85.19 | 0.78 | 10.61 | 0.66 | CC[C@H](C)[C@@H]1NC(=O)[C@@H](NC(=O)[C@H](CC(=O)O)NC(=O)[C@H](CC(C)C)NC(=O)[C@H](Cc2ccc(O)cc2)NC(=O)[C@H](CCCCN)NC(=O)[C@H](CO)NC(=O)[C@H](Cc2ccc(O)cc2)NC(=O)[C@H](CC(=O)O)NC(=O)[C@H](CO)NC(=O)[C@@H](NC(=O)[C@H](Cc2ccccc2)NC(=O)[C@@H](NC(=O)CNC(=O)[C@H](CCC(N)=O)NC(=O)[C@H](CO)NC(=O)[C@@H](N)Cc2c[nH]cn2)[C@@H](C)O)[C@@H](C)O)CCC(=O)NCCCC[C@@H](C(=O)N[C@@H](CC(=O)O)C(=O)N[C@@H](Cc2ccccc2)C(=O)N[C@H](C(=O)N[C@@H](CC(N)=O)C(=O)N[C@@H](Cc2c[nH]c3ccccc23)C(=O)N[C@@H](CC(C)C)C(=O)N[C@@H](CC(C)C)C(=O)N[C@@H](C)C(=O)N[C@@H](CCC(N)=O)C(N)=O)C(C)C)NC(=O)[C@H](CCC(N)=O)NC(=O)[C@H](Cc2c[nH]cn2)NC1=O [mt-111] (H-HSQGTFTSDYSKYLDEIHQKDFVNWLLAQ-NH2; lactam 16-20; N-terminus assumed) |
| 8.64 | 0.95 | 100.00 | 0.04 | CC[C@H](C)[C@H](NC(=O)[C@H](CO)NC(=O)[C@H](Cc1ccc(O)cc1)NC(=O)[C@H](CC(=O)O)NC(=O)[C@H](CO)NC(=O)[C@@H](NC(=O)[C@H](Cc1ccccc1)NC(=O)[C@@H](NC(=O)CNC(=O)[C@H](CCC(N)=O)NC(=O)[C@H](CO)NC(=O)[C@@H](N)Cc1c[nH]cn1)[C@@H](C)O)[C@@H](C)O)C(=O)N[C@@H](Cc1ccc(O)cc1)C(=O)N[C@@H](CCSC)C(=O)N[C@@H](CC(=O)O)C(=O)N[C@H]1CCC(=O)NCCCC[C@@H](C(=O)N[C@@H](CC(=O)O)C(=O)N[C@@H](Cc2ccccc2)C(=O)N[C@H](C(=O)N[C@@H](CC(N)=O)C(=O)N[C@@H](Cc2c[nH]c3ccccc23)C(=O)N[C@@H](CC(C)C)C(=O)N[C@@H](CC(C)C)C(=O)N[C@@H](C)C(=O)N[C@@H](CCC(N)=O)C(N)=O)C(C)C)NC(=O)[C@H](CCC(N)=O)NC(=O)[C@H](Cc2c[nH]cn2)NC(=O)[C@H]([C@@H](C)CC)NC1=O [mt-124] (H-HSQGTFTSDYSIYMDEIHQKDFVNWLLAQ-NH2; lactam 16-20; N-terminus assumed) |
| 9.06 | 19.64 | 3.17 |  | CC[C@H](C)[C@H](NC(=O)[C@H](CO)NC(=O)[C@H](Cc1ccc(O)cc1)NC(=O)[C@H](CC(=O)O)NC(=O)[C@H](CO)NC(=O)[C@@H](NC(=O)[C@H](Cc1ccccc1)NC(=O)[C@@H](NC(=O)CNC(=O)[C@H](CCC(N)=O)NC(=O)[C@H](CO)NC(=O)[C@@H](N)Cc1ccc(O)cc1)[C@@H](C)O)[C@@H](C)O)C(=O)N[C@@H](Cc1ccc(O)cc1)C(=O)N[C@@H](CCSC)C(=O)N[C@@H](CC(=O)O)C(=O)N[C@H]1CCC(=O)NCCCC[C@@H](C(=O)N[C@@H](CC(=O)O)C(=O)N[C@@H](Cc2ccccc2)C(=O)N[C@H](C(=O)N[C@@H](CC(N)=O)C(=O)N[C@@H](Cc2c[nH]c3ccccc23)C(=O)N[C@@H](CC(C)C)C(=O)N[C@@H](CC(C)C)C(=O)N[C@@H](C)C(=O)N[C@@H](CCC(N)=O)C(N)=O)C(C)C)NC(=O)[C@H](CCC(N)=O)NC(=O)[C@H](Cc2c[nH]cn2)NC(=O)[C@H]([C@@H](C)CC)NC1=O [mt-125] (H-YSQGTFTSDYSIYMDEIHQKDFVNWLLAQ-NH2; lactam 16-20; N-terminus assumed) |
